The numbers were not newly measured in patent publication US20090023692A1, “COMPOSITIONS FOR INHIBITING AND PREVENTING VASCULAR OCCLUSION CONTAINING NUTRITIONAL SUPPLEMENTS” (NeursoSci, Inc., priority 2005, published 2009), which cites them from elsewhere.

Structures are written as SMILES.

For the series the following is noted: daily administration of low doses (approximately 80-100 mg), patients at risk for cardiovascular events.

For the compound `CC(=O)Oc1ccccc1C(=O)O` [aspirin, acetylsalicylic acid], the “reduction of second heart attacks, strokes, and cardiovascular deaths” value is listed as “at least 25%”.
